Measured values as given in patent publication US20180153840A1, “THE COMPOSITIONS OF GLYCEROL AND /OR NON-TOXIC AMINO ACIDS FOR INHIBITING AND DESTROYING BIOFILM, INCLUDING RELATED METHODS” (priority 2015, published 2018).
Entries after “also recorded” stand apart in the source; their conditions may differ.

How the values were obtained:
[1] = tested on: S. aureus biofilm; test: Bacterial biofilm disruption assay; type: cell-based; details: Staphylococcus aureus; for inhibition at 1 %: read-out: Reduce B Biofilm; for activation at 1 %: read-out: Promote B Biofilm
Procedure: (§1) For fungal biofilm assays, all solutions were prepared in RPMI 1640 medium. All bacterial biofilm solutions were prepared in Trypic Soy Broth (TSB), supplemented with 1% glucose (henceforth referred to as TSB-G). All subsequent procedures were performed in a manner that maintained sterility. A solution of each amino acid to be tested was prepared in weight to volume concentrations ranging from 0.1-5.0%. Amino acids were also tested in combinations. Compound solutions were homogenized with gentle agitation in the dark (4° C., 24 hours) before use.
(§2) All biofilm assays were performed using 384-well non-tissue culture treated polystyrene plates. The fungal species tested are as follows: Candida albicans, Candida guilliermondii Candida parapsilosis, Candida glabrata, Candida tropicalis and Candida dubliniensis. The bacterial species tested are as follows: Staphylococcus aureus (standard wild type and methicillin-resistant strain USA300), Escherichia coli, Pseudomonas aeruginosa and Staphylococcus epidermidis.
(§3) Bacterial strains were streaked on Blood Agar plates (5% sheep blood in Tryptic Soy Broth) and incubated at 37° C. for 24 hours. A single colony from each strain to be tested was inoculated in a TSB broth and grown for 12 hours, at 37° C. with shaking (225 rpm).
(§4) For the bacterial biofilm disruption assays, 80 μL of TSB-G was added to the plate, along with 1 μL of overnight cell culture. The cells were allowed to adhere to the plate for 60 minutes at 37° C. without shaking. The media was carefully aspirated and 80 μL of TSB-G was added to the plate. The plate was further incubated for 24 hours at 37° C. without shaking. Media was carefully aspirated from the mature biofilm and 80 μL of TSB-G, or TSB-G supplemented with the amino acid to be tested, was gently added to the plate. The plate was further incubated for 24 hours at 37° C. without shaking. Media was aspirated and the biofilm was measured for bacterial cell concentration by optical density at 600 nm. Twelve replicates were performed for each tested condition and the reported values were normalized to the control (TSB-G media only).

[2] = tested on: S. aureus biofilm; test: Bacterial biofilm inhibition assay; type: cell-based, Staphylococcus aureus; details: for activation at 1 %: Staphylococcus aureus, read-out: Promote B Biofilm
Procedure: as §1, §2, §3
(§5) For the bacterial biofilm inhibition assays, 1 μL of saturated overnight cell culture was added to either 80 μL of TSB-G, or TSB-G supplemented with the amino acid compound solution to be tested, in a 384-well plate. The cells were allowed to adhere to the plate for 60 minutes at 37° C. without shaking. The media was carefully aspirated and 80 μL of TSB-G, or TSB-G supplemented with the amino acid compound solution was added to the plate. The plate was further incubated for 24 hours at 37° C. without shaking. Media was carefully aspirated and the biofilm was measured for bacterial cell concentration by optical density at 600 nm. Eight or twelve replicates were performed for each tested condition and the reported values were normalized to the control (TSB-G media only).

[3] = tested on: bacterial biofilms; test: Bacterial biofilm assays (sustained inhibition and/or disruption); type: cell-based, Staphylococcus aureus; details: for anti-biofilm properties against bacterial biofilms: individually, about 0.1 to about 5.0% weight to volume (cystathionine 0.2%), at least one of the two assays; for support (improve) bacterial biofilm growth: based on the two assays (sustained inhibition and/or disruption)
Procedure: as §1, §2, §3, §5, §4

[4] = tested on: bacterial and fungal biofilms; test: In vitro testing on bacterial and fungal biofilms; type: cell-based; details: for neutral, effect on bacterial or fungal biofilms: both assays (sustained inhibition and disruption); for effect on bacterial and fungal biofilm (in words): in vitro
Procedure: as §1, §2
(§6) Fungal strains were streaked on Yeast Peptone Dextrose (YPD) agar plates and incubated at 30° C. for 48 hours. A single colony from each strain to be tested was inoculated into YPD broth and grown for 12 hours, at 30° C., shaking at 225 rpm. For the fungal biofilm inhibition assay, 1 μl of saturated overnight cell culture was added to either 80 μL of RPMI-1640 or RPMI-1640 supplemented with the amino acid compound solution to be tested, in a 384-well plate. The cells were allowed to adhere to the plate for 90 minutes at 37° C. with shaking (350 rpm). Loosely bound cells were washed once with phosphate buffered saline (PBS) and 80 ul of RPMI-1640, or RPMI-1640 supplemented with the amino acid compound solution was added to the plate. The plate was further incubated for 24 hours at 37° C. with shaking (350 rpm). Media was carefully aspirated and the biofilm was measured for fungal cell concentration by optical density at 600 nm. Twelve replicates were performed for each tested condition and the reported values were normalized to the control (RPMI-1640 media only).
(§7) For the fungal biofilm disruption assays, 80 μL of RPMI-1640 was added to the plate, along with 1 μL of overnight cell culture. The cells were allowed to adhere to the plate for 90 minutes at 37° C. with shaking (350 rpm). Loosely bound cells were washed once with PBS and 80 μL of RPMI-1640 was added to the plate. The plate was further incubated for 24 hours at 37° C. with shaking (350 rpm). Media was carefully aspirated from the mature biofilm and 80 μL of RPMI-1640, or RPMI-1640 supplemented with the amino acid compound solution to be tested, was gently added to the plate. The plate was further incubated for 24 hours at 37° C. with shaking (350 rpm). Media was carefully aspirated and the biofilm was measured for fungal cell concentration by optical density at 600 nm. Twelve replicates were performed for each tested condition and the reported values are normalized to the control (RPMI-1640 media only).
as §3
as §5, with “nm.” for “nm. Eight or twelve replicates were performed for each tested condition and the reported values were normalized to the control (TSB-G media only).”

[5] = tested on: fungal biofilms; test: Fungal biofilm assays (sustained inhibition and/or disruption); type: cell-based, Candida albicans; details: administered individually; at least one of the two assays (sustained inhibition and/or disruption)
Procedure: as §1, §2, §6, §7

[6] = disruption assay, S. aureus, 1% amino acid, p≤0.001
[7] = sustained inhibition assay, S. aureus, 1% amino acid, p≤0.001

Structure (SMILES)	effect on bacterial and fungal biofilm (in words) [4]	activation at 1 % [1, 6] [%]	support (improve) bacterial biofilm growth [3]	activation at 1 % [2, 7] [%]	other results
NC(CCCC(=O)O)C(=O)O (centres unmarked) [2 Aminoadipic Acid, 2-aminoadipic acid]					inhibition at 1 % [1, 6]: 10 to 30%; Reduce B Biofilm [2, 7]: • (a single dot (●) signifies an effect in a range of about 10 to about 30% change); anti-biofilm properties against bacterial biofilms [3]: anti-biofilm properties against bacterial biofilms
CCC(N)C(=O)O (centres unmarked) [2 Aminobutyric Acid, 2-aminobutyric acid]					neutral, effect on bacterial or fungal biofilms [4]: no effect on bacterial or fungal biofilms
C[C@H](N)C(=O)O [Alanine, L-alanine]	promote bacterial and fungal biofilm	10 to 30	support (improve) bacterial biofilm growth		
N=C(N)NCCC[C@H](N)C(=O)O [Arginine, L-arginine]	promote bacterial and fungal biofilm		support (improve) bacterial biofilm growth		activation at 1 % [1]: 10 to 30%; activation at 1 % [2]: 10 to 30%
NC(=O)C[C@H](N)C(=O)O [Asparagine, L-asparagine]			support (improve) bacterial biofilm growth	10 to 30	
NCCC(=O)O [Beta-Alanine, Beta-alanine]					Reduce B Biofilm [2, 7]: • (a single dot (●) signifies an effect in a range of about 10 to about 30% change); anti-biofilm properties against bacterial biofilms [3]: anti-biofilm properties against bacterial biofilms
NC(=O)NCCC[C@H](N)C(=O)O [Citrulline, L-citrulline]			support (improve) bacterial biofilm growth		activation at 1 % [1]: 10 to 30%; activation at 1 % [2]: 10 to 30%
NC(=O)CC[C@H](N)C(=O)O [Glutamine, L-glutamine]					neutral, effect on bacterial or fungal biofilms [4]: no effect on bacterial or fungal biofilms
NCC(=O)O [Glycine, L-glycine]	promote bacterial and fungal biofilm	10 to 30	support (improve) bacterial biofilm growth	10 to 30	
N[C@@H](Cc1c[nH]cn1)C(=O)O [Histidine, L-histidine]					neutral, effect on bacterial or fungal biofilms [4]: no effect on bacterial or fungal biofilms
N[C@@H](CCS)C(=O)O [Homocysteine, L-homocysteine]					anti-biofilm properties against fungal biofilms [5]: anti-biofilm properties against fungal biofilms; anti-biofilm properties against bacterial biofilms [3]: anti-biofilm properties against bacterial biofilms
CC[C@H](C)[C@H](N)C(=O)O [Isoleucine, L-isoleucine]	promote bacterial and fungal biofilm	10 to 30	support (improve) bacterial biofilm growth		
CC(C)C[C@H](N)C(=O)O [Leucine, L-leucine]	promote bacterial and fungal biofilm	10 to 30	support (improve) bacterial biofilm growth	10 to 30	
NCCCC[C@H](N)C(=O)O [Lysine, L-lysine]	promote bacterial and fungal biofilm		support (improve) bacterial biofilm growth		activation at 1 % [1]: 10 to 30%; activation at 1 % [2]: 10 to 30%
CSCC[C@H](N)C(=O)O [Methionine, L-methionine]	promote bacterial and fungal biofilm		support (improve) bacterial biofilm growth	10 to 30	
NCCC[C@H](N)C(=O)O [Ornithine, L-ornithine]		10 to 30	support (improve) bacterial biofilm growth		
N[C@@H](Cc1ccccc1)C(=O)O [Phenylalanine, L-phenylalanine]	promote bacterial and fungal biofilm	10 to 30	support (improve) bacterial biofilm growth	10 to 30	
NCCOP(=O)(O)O [Phosphoethanolamine, O-phosphoethanolamine]					inhibition at 1 % [1, 6]: 10 to 30%; Reduce B Biofilm [2, 7]: • (a single dot (●) signifies an effect in a range of about 10 to about 30% change); anti-biofilm properties against bacterial biofilms [3]: anti-biofilm properties against bacterial biofilms
O=C(O)[C@@H]1CCCN1 [Proline, L-proline]	promote bacterial and fungal biofilm	10 to 30	support (improve) bacterial biofilm growth		
N[C@@H](CO)C(=O)O [Serine, L-serine]	promote bacterial and fungal biofilm	10 to 30	support (improve) bacterial biofilm growth	10 to 30	
NCCS(=O)(=O)O [Taurine, L-taurine]		10 to 30	support (improve) bacterial biofilm growth	10 to 30	
C[C@@H](O)[C@H](N)C(=O)O [Threonine, L-threonine]	promote bacterial and fungal biofilm		support (improve) bacterial biofilm growth	10 to 30	
N[C@@H](Cc1c[nH]c2ccccc12)C(=O)O [Tryptophan, L-tryptophan]	promote bacterial and fungal biofilm		support (improve) bacterial biofilm growth		activation at 1 % [2]: 10 to 30%
N[C@@H](Cc1ccc(O)cc1)C(=O)O [Tyrosine, L-tyrosine]	neutral effect on biofilm				neutral, effect on bacterial or fungal biofilms [4]: no effect on bacterial or fungal biofilms
OCC(O)CO [glycerol]	no measurable effect; also recorded: not found to have antibiofilm effect				
